PMC7537338, “CD47/SIRPα blocking peptide identification and synergistic effect with irradiation for cancer immunotherapy” (Journal for Immunotherapy of Cancer, 2020)
Where a SMILES comes first, the peptide text is derived from it. [ ]: non-standard residue; d: D form.

Assays:
[1] = biological target: T1, human CD47/SIRPα interaction (Homo sapiens, UniProt Q08722); experiment: Blocking assay, human CD47 protein binding to CHO cells expressing human SIRPα (flow cytometry); details: blockade of peptides to hCD47 relative to parent pep-20, Table S4
T1 construct: Human or mouse CD47-IgV-Domain-hIg fusion proteins (20 nM, Sino Biological, China); purchased Sino Biological (hIg fusion); ACROBiosystems (biotinylated human CD47); host or cells: SIRPα partner: CHO cells stably expressing human SIRPα
T1 sequence (Q08722 19-127 limits assumed): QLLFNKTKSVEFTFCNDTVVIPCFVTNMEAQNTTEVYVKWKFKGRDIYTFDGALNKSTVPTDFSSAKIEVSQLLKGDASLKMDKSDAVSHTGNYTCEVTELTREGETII
Method: Human or mouse CD47-IgV-Domain-hIg fusion proteins (20 nM, Sino Biological, China), or biotinylated human CD47 protein (20 nM, ACROBiosystems, USA) was incubated with titrating concentrations of peptides or anti-human CD47 antibody (B6H12) in phosphate-buffered saline (PBS, pH 7.4) for 1 hour at 4°C. The mixture was incubated with human or mice SIRPα overexpressed Chinese hamster ovary cells for 30 min at 4°C, washed to remove unbound mixtures and phycoerythrin (PE)-conjugated goat anti-human IgG or PE-conjugated streptavidin was incubated (eBioscience, USA). Cells were then analyzed by flow cytometry (BD Biosciences, USA). The IC50 was determined from sigmoidal dose response curves illustrated by GraphPad Prism.

[2] = Pharmacokinetic assay in vivo; details: C57BL/6, mouse, plasma, iv, 40 mg/kg
Method: (§1) of pep-20 and pep- 20-D12. The plasma concentration-time curve of pep-20 (E) and
(§2) C57BL/6 mice with weight of 18-20 g were administrated with a single 141
(§3) centrifuged at 8000 rpm for 10 min at the indicated intervals. Plasma wa s 143
(§4) further mixed with 10% HClO4 at a ratio of 2∶1 (v/v) and centrifuged at 16,000 144

[3] = test system: MC38 tumor-bearing C57BL/6 mice; experiment: Hematological toxicity in MC38 tumor-bearing mice; type: in vivo; details: 2 mg/kg i.p. every day two weeks versus miap301 400 μg every 3 days x5, day 14, n = 4 - 5
Method: anti-CD47. (A, B) MC38 tumor-bearing C57BL/6 mice were treated i.p. with 2 mg/kg pep-20-D12 every day for two weeks or 400μg anti -mouse CD47 antibody
(miap301) every 3 days for a total of 5 times, and normal saline or ratIg as the negative controls, respectively (n = 4 - 5). On day 14, hematologic parameters of red blood cell (A), hemoglobin (B) level were analyzed. Data are represented as means ± SEM. Statistical significance was determined by unpaired Student's t test.
111 Mouse toxicity assays
112 Normal C57BL/6 mice were injected s.c. with 2 mg/kg peptides or normal 113 saline as the negative control daily from day 1 to 14 (n = 5). On days 0 and 14, 114 mice blood samples were collected via retro-orbital bleed. For MC38 115 tumor-bearing mice, blood samples were collected after treatment (n = 4 - 5).
116 Hematologic and blood biochemical parameters were analyzed by ADVIA 117 2120i Hematology Analyzer (Siemens, Germany). […]
124 The 3D structure of pep-20 was predicted by pep-FOLD3. […] The ΔdAffinity 126 between pep-20 and pep-20-derived alanine substituation analogue peptides 127 were calculated by Ala-scanning of molecular operating environment (MOE, 128 Chemical Computing Group, CA), which was used to display the structure of 129 pep-20 and docking model of pep-20 and CD47 including interaction of […]

[4] = Peptide stability assay in 10% human serum; type: in vitro ADME; details: 200 μM peptide in normal saline, fresh human serum 10% vol/vol, 37°C, sampled 0 min to 48 h, RP-HPLC, triplicates
Method: proteolysis compared with parent pep-20. (A, B) Dose response curves of pep-20-D12 interfering CD47-Sirpα interaction. […]
peptide and serum were analyzed by RP-HPLC. Error bars indicate standard deviation of triplicates. Data are represented as means ± SEM. (E, F) The pharmacokinetic analysis […]
of pep-20 and pep- 20-D12.
Data are represented as means ± SEM. […]
human serum (10%, vol/vol).
8h, 24h, 36h and 48h. The acetonitrile-glacial acetic acid mixture was utilized 136 to terminate the enzymatic reaction. After centrifuged at 12000 rpm for 10 min, 137 […]
Pharmacokinetic assays in vivo 140 […]
intravenous dose of 40 mg/kg of peptides. Blood samples were collected an d 142 […]
rpm for 10 min. The supernatant was analyzed by RP-HPLC. The 145 pharmacokinetic parameters of peptides were determined by 146 noncompartmental analysis (NCA) using Phoenix WinNonlin software program 147 5.2.1 (Certara, Princeton, USA). The maximum plasma concentration Cmax and 148 elimination half-life (T1/2) were calculated. 149

in vivo = details: C57BL/6, mouse, iv, 40 mg/kg
Method: as §1, §2, §3, §4

C[C@H](NC(=O)[C@@H](CO)NC(=O)[C@@H](Cc1c[nH]c2ccccc12)NC(=O)[C@@H](C)N)C(=O)N[C@H](C(=O)N[C@@H](Cc1c[nH]c2ccccc12)C(=O)N[C@@H](CO)C(=O)N[C@@H](CC(N)=O)C(=O)N[C@@H](Cc1ccc(O)cc1)C(=O)N[C@H](Cc1c[nH]c2ccccc12)C(=O)N[C@H](CCCNC(=N)N)C(=O)N[C@H](Cc1c[nH]cn1)C(=O)O)[C@@H](C)O [pep-20-D12] (H-[dA][dW][dS]ATWSNY[dW][dR][dH]-OH)
Blocking rate relative to pep-20 (%) [1]: 105% | Cmax [2]: 54.5 µg/mL | Blood toxicity (red blood cell, hemoglobin) compared with anti-CD47 antibody [3]: less blood toxicity | Time for which the initial concentration was retained in human serum [4]: up to 36 hours | half-life (in vivo): 6.36 h
